Assay results published in PubChem BioAssay (NCI).
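Five concentrations, 48 hours, 96-well plates. GI50 marks 50% less growth. TGI: total growth inhibition.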

Tests used:
Assay in all cases: growth of human tumour cells (NCI), 48 h
[1] = test system: BT-549 breast
[2] = test system: CCRF-CEM leukemia
[3] = test system: EKVX NSCLC
[4] = test system: HL-60(TB) leukemia
[5] = test system: MDA-MB-231 breast
[6] = test system: MDA-MB-435
[7] = test system: NCI/ADR-RES ovarian
[8] = test system: SF-539 CNS
[9] = test system: SK-MEL-2 melanoma
[10] = test system: TK-10 renal

O=C1CCC(N2Cc3c(C#CCCCNC(=O)c4cc5c(o4)C(=O)c4ccccc4C5=O)cccc3C2=O)C(=O)N1 (stereo not given)
GI50 [1]: 1.73 µM
TGI [1]: 3.17 µM
GI50 [2]: 4.42 µM
TGI [2]: 55.4 µM
GI50 [3]: 15 µM
TGI [3]: 31.1 µM
GI50 [4]: 2.37 µM
TGI [4]: 7.34 µM
GI50 [5]: 2.92 µM
TGI [5]: 19.6 µM
GI50 [6]: 1.81 µM
TGI [6]: 3.27 µM
GI50 [7]: > 100 µM
TGI [7]: > 100 µM
GI50 [8]: 2.27 µM
TGI [8]: 5.26 µM
GI50 [9]: 2.54 µM
TGI [9]: 6.47 µM
GI50 [10]: 33.1 µM
TGI [10]: 50.2 µM

Cc1c(-c2nnc(-c3ccc(F)cc3)o2)nnn1-c1ccnc2c(C(F)(F)F)cccc12
GI50 [1]: 21.6 µM
TGI [1]: 58.1 µM
GI50 [2]: > 100 µM
TGI [2]: > 100 µM
GI50 [3]: 31.8 µM
TGI [3]: > 100 µM
GI50 [4]: > 100 µM
TGI [4]: > 100 µM
GI50 [5]: 29 µM
TGI [5]: > 100 µM
GI50 [6]: 77.6 µM
TGI [6]: > 100 µM
GI50 [7]: 40.3 µM
TGI [7]: > 100 µM
GI50 [8]: 26.5 µM
TGI [8]: > 100 µM
GI50 [9]: > 100 µM
TGI [9]: > 100 µM
GI50 [10]: 32.2 µM
TGI [10]: 98.8 µM

CSC1=Nc2c(c(C)c(C)n2COC(CO)CO)C2=NC(=O)CC(C)N12 (stereo not given)
GI50 [1]: > 100 µM
TGI [1]: > 100 µM
GI50 [2]: 16.5 µM
TGI [2]: 49.5 µM
GI50 [3]: > 100 µM
TGI [3]: > 100 µM
GI50 [4]: 0.0864 µM
TGI [4]: > 100 µM
GI50 [5]: > 100 µM
TGI [5]: > 100 µM
GI50 [6]: > 100 µM
TGI [6]: > 100 µM
GI50 [7]: > 100 µM
TGI [7]: > 100 µM
GI50 [8]: > 100 µM
TGI [8]: > 100 µM
GI50 [9]: > 100 µM
TGI [9]: > 100 µM
GI50 [10]: > 100 µM
TGI [10]: > 100 µM

Brc1ccccc1C=NC12CC3CC(CC(C3)C1)C2
TGI [1]: > 100 µM
TGI [2]: > 100 µM
TGI [3]: > 100 µM
TGI [4]: 4.37 µM
TGI [5]: > 100 µM
TGI [6]: > 100 µM
TGI [7]: > 100 µM
TGI [8]: > 100 µM
TGI [9]: > 100 µM
TGI [10]: > 100 µM

CC(=O)OC1Oc2cc(C)c(C)cc2-c2oc(=O)c(-c3ccc(F)cc3)cc21 (stereo not given)
GI50 [1]: 7.76 µM
TGI [1]: 45.9 µM
GI50 [2]: 3.61 µM
TGI [2]: 21.4 µM
GI50 [3]: 5.23 µM
TGI [3]: > 100 µM
GI50 [4]: 3.71 µM
TGI [4]: > 100 µM
GI50 [5]: 8.34 µM
TGI [5]: 65 µM
GI50 [6]: 1.59 µM
TGI [6]: 4.21 µM
GI50 [7]: 2.86 µM
TGI [7]: 9.34 µM
GI50 [8]: 7.1 µM
TGI [8]: > 100 µM
GI50 [9]: 6.05 µM
TGI [9]: 41.3 µM
GI50 [10]: 17.1 µM
TGI [10]: 71.4 µM

Clc1ccc(C2=NN[C@H](c3cn(-c4ccccc4)nc3-c3ccccc3)C2)cc1
GI50 [1]: 10.3 µM
TGI [1]: 28.4 µM
GI50 [2]: 8.23 µM
TGI [2]: 45.3 µM
GI50 [3]: 3.16 µM
TGI [3]: 18.8 µM
GI50 [4]: 19.8 µM
TGI [4]: > 100 µM
GI50 [5]: 5.91 µM
TGI [5]: 24.9 µM
GI50 [6]: 5.13 µM
TGI [6]: > 100 µM
GI50 [7]: 3.17 µM
TGI [7]: 12.7 µM
GI50 [8]: 8.95 µM
TGI [8]: 23 µM
GI50 [9]: 4.85 µM
TGI [9]: 16.3 µM
GI50 [10]: 5.87 µM
TGI [10]: 18.6 µM

S=C(c1ccc2c(c1)OCO2)N1CCN(c2cccc(Cl)c2)CC1
GI50 [1]: 9.32 µM
TGI [1]: > 100 µM
GI50 [2]: 1.01 µM
TGI [2]: > 21.9 µM
GI50 [3]: 4.52 µM
TGI [3]: > 100 µM
GI50 [4]: 0.195 µM
TGI [4]: 0.642 µM
GI50 [5]: 5.73 µM
TGI [5]: > 100 µM
GI50 [6]: 0.182 µM
TGI [6]: 0.607 µM
GI50 [7]: 0.635 µM
TGI [7]: > 100 µM
GI50 [8]: 1.1 µM
TGI [8]: 8.13 µM
GI50 [9]: > 100 µM
TGI [9]: > 100 µM
GI50 [10]: 4.55 µM
TGI [10]: > 100 µM

O=C(NCCNc1nccc(-c2c(-c3ccc(F)cc3)nc3sccn23)n1)c1ccccc1
GI50 [1]: 14.3 µM
TGI [1]: 34 µM
GI50 [2]: 3.83 µM
TGI [2]: 36.3 µM
GI50 [3]: 7.51 µM
TGI [3]: 56.1 µM
GI50 [4]: 21.3 µM
TGI [4]: 77.4 µM
GI50 [5]: 15.2 µM
TGI [5]: 67.2 µM
GI50 [6]: 2.69 µM
TGI [6]: 14 µM
GI50 [7]: 7.13 µM
TGI [7]: 76.4 µM
GI50 [8]: 12.2 µM
TGI [8]: 29.5 µM
GI50 [9]: 8.75 µM
TGI [9]: 39.3 µM
GI50 [10]: 15.8 µM
TGI [10]: 48.7 µM

Cc1sc(NC2=NC(=O)/C(=C\c3ccccc3)S2)nc1-c1nc(NC2=NC(=O)/C(=C\c3ccccc3)S2)sc1C
GI50 [1]: 18.4 µM
TGI [1]: > 50 µM
GI50 [2]: 9.41 µM
TGI [2]: 35.6 µM
GI50 [3]: 0.0627 µM
TGI [3]: 1.94 µM
GI50 [4]: 18 µM
TGI [4]: > 50 µM
GI50 [5]: 10.2 µM
TGI [5]: 27 µM
GI50 [6]: 16.3 µM
TGI [6]: > 50 µM
GI50 [7]: 14.4 µM
TGI [7]: 43.8 µM
GI50 [8]: 17.9 µM
TGI [8]: > 34.1 µM
GI50 [9]: > 35.1 µM
TGI [9]: > 50 µM
GI50 [10]: 7.19 µM
TGI [10]: 22.7 µM

CNC(=O)NC(CCCCNC(=O)OCc1ccccc1)C(=O)OCc1ccccc1 (stereo not given)
TGI [1]: > 100 µM
TGI [2]: 71.8 µM
TGI [3]: > 100 µM
TGI [4]: 65.6 µM
TGI [5]: > 73.9 µM
TGI [6]: 39.5 µM
TGI [7]: > 100 µM
TGI [8]: 49.9 µM
TGI [9]: 38.4 µM
TGI [10]: 99 µM
